Test results as given in article PMC10065799, “High-throughput profiling of sequence recognition by tyrosine kinases and SH2 domains using bacterial peptide display” (eLife, 2023).

Target: T1, c-Abl kinase domain (Mus musculus, UniProt P00520)
T1 sequence (P00520 242-493 limits assumed): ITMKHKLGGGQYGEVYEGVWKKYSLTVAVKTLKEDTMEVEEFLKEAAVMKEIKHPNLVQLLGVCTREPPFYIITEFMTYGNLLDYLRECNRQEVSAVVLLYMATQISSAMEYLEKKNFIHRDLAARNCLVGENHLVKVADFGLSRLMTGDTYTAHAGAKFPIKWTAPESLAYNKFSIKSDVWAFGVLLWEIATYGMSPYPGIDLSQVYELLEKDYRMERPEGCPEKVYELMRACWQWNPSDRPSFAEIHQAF
Test: pTyr-Var library bacterial peptide display kinase screen (enrichment scores)
Assay type: biochemical
Details: variant versus reference peptide

GMAHNYRNRSQ [AASS_Y188_S191R]
c-Abl difference (mean log2 variant - mean log2 reference): 0.7958
